Drawing on patent US12018033B2, “Inhibitors of protein arginine deiminases” (Forward Therapeutics, Inc., priority 2018, dated 2024), this text covers IC50 for 37 compounds.

The term IC50 denotes the concentration needed to halve the response being measured.

For the experiment, the target named is T1, Recombinant human PAD4 (2-663) (Homo sapiens, UniProt Q9UM07).
T1 construct: Recombinant human PAD4 (2-663) was expressed in E. coli; made in house; host or cells: E. coli
T1 sequence (Q9UM07 2-663): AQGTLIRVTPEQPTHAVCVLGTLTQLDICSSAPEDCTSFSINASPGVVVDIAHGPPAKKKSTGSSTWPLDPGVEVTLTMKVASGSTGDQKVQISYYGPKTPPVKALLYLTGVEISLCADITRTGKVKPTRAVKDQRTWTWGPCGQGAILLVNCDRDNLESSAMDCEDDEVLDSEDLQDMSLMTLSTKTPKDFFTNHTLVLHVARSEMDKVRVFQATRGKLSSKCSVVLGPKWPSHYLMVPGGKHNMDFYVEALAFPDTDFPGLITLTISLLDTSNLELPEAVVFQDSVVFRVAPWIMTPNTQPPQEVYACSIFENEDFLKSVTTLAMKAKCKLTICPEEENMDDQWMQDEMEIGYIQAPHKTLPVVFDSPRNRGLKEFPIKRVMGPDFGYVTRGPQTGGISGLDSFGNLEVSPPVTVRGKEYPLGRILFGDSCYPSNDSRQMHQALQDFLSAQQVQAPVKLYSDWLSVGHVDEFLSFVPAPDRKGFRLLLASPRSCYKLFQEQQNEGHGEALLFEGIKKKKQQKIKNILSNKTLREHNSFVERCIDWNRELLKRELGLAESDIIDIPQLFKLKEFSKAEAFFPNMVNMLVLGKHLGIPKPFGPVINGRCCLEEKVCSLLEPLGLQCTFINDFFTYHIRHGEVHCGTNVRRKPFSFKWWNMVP
As to the kind of experiment: PAD4 Inhibition Assay. The class given is biochemical. The following applies: 60 mins pre-incubation at RT; substrate BAEE with CaCl2; fluorescent signal (λex 405/λem 460). Here is the method: Protein: Recombinant human PAD4 (2-663) was expressed in E. coli as an N-terminal Strep-tag and C-terminal 6-his tag fusion protein. Protein was purified using Strep-tactin resin followed by size exclusion chromatography. Tags were not removed during purification. Activity of the protein was determined using ammonia quantification assay.
PAD4 enzyme (10 μL) was diluted to concentration of 75 nM in assay buffer A (100 mM HEPES, pH 8, 50 mM NaCl, 2 mM DTT, 0.6 mg/mL BSA and 0.5% DMSO) and added to wells containing 10 μL of various concentrations of test compound, or DMSO vehicle in buffer A with 1.5% final DMSO concentration in a Corning high volume 384 well black plate. Following 60 mins pre-incubation at RT with gentle shaking, the reaction was initiated by the addition of 10 μL of substrate buffer containing 3 mM N-α-benzoyl-L-arginine ethyl ester (BAEE) and 600 μM CaCl2) in assay buffer A. The reaction was stopped after 60 mins with the addition of 15 μL stop/detection buffer containing 7.5 mM phthalaldehyde, 50 mM EDTA and 7.5 mM DTT in assay buffer A. Quenched reactions were incubated at RT for 45 mins before measuring fluorescent signal (λex 405/λem 460) on an Envision plate reader (Perkin Elmer Life Sciences, Waltham, Mass., USA).
In the case of `N[C@@H]1CCN(C(=O)c2cc3cc(Br)c(F)c(F)c3[nH]2)C1` [Example 5, (R)-(3-Aminopyrrolidin-1-yl)(5-bromo-6,7-difluoro-1H-indol-2-yl)methanone], the concentration for half-maximal inhibition (IC50) was ≤ 1 µM.

Consider `O=C(NC[C@H]1CCNC1)c1cc2cc(Cl)c(F)c(F)c2[nH]1` [Example 62, (S)-5-chloro-6,7-difluoro-N-(pyrrolidin-3-ylmethyl)-1H-indole-2-carboxamide], for which the IC50 was 10 to 100 µM.

For the compound `N[C@@H]1CCN(C(=O)c2cc3ccc(Cl)cc3[nH]2)C1` [Example 46, (R)-(3-Aminopyrrolidin-1-yl)(6-chloro-1H-indol-2-yl)methanone], the IC50 was in the range of 1 to 10 µM.

As for `N[C@H]1CN(C(=O)c2cc3cc(Cl)c(F)c(F)c3[nH]2)C[C@@H]1N` [Example 29, (5-Chloro-6,7-difluoro-1H-indol-2-yl)((3S,4S)-3,4-diaminopyrrolidin-1-yl)methanone], the IC50 lay in the range of 1 to 10 µM.

`N[C@@H]1CCN(C(=O)c2cc3cc(Cl)c(F)c(F)c3[nH]2)C1` [Example 1, (R)-(3-Aminopyrrolidin-1-yl)(5-chloro-6,7-difluoro-1H-indol-2-yl)methanone]: the half-maximal inhibitory concentration (IC50) was ≤ 1 µM.

`O=C(N[C@H]1CNC[C@H]1O)c1cc2cc(Cl)c(F)c(F)c2[nH]1` [Example 17, 5-Chloro-6,7-difluoro-N-((3S,4R)-4-hydroxypyrrolidin-3-yl)-1H-indole-2-carboxamide]: the half-inhibitory concentration (IC50) is 10 to 100 µM.

Regarding `CC(C)(C)[C@@H](CN)NC(=O)c1cc2cc(Cl)c(F)c(F)c2[nH]1` [Example 28, (S)-N-(1-Amino-3,3-dimethylbutan-2-yl)-5-chloro-6,7-difluoro-1H-indole-2-carboxamide], the IC50 lay in the range of 10 to 100 µM.

As to `O=C(N[C@H]1CNC[C@@H]1O)c1cc2cc(Cl)c(F)c(F)c2[nH]1` [Example 18, 5-Chloro-6,7-difluoro-N-((3S,4S)-4-hydroxypyrrolidin-3-yl)-1H-indole-2-carboxamide], the IC50 fell in the range of 10 to 100 µM.

Take `C[C@@H]1NC[C@@H]1NC(=O)c1cc2cc(Cl)c(F)c(F)c2[nH]1` [Example 54, 5-chloro-6,7-difluoro-N-((2S,3S)-2-methylazetidin-3-yl)-1H-indole-2-carboxamide]: the half-maximal inhibitory concentration (IC50) lay within 1 to 10 µM.

Take `C[C@H]1CCNC[C@@H]1NC(=O)c1cc2cc(Cl)c(F)c(F)c2[nH]1` [Example 41, 5-Chloro-6,7-difluoro-N-((3R,4S)-4-methylpiperidin-3-yl)-1H-indole-2-carboxamide]: the 50% inhibitory concentration (IC50) was 10 to 100 µM.

`CC(C)C[C@@H](CN)NC(=O)c1cc2cc(Cl)c(F)c(F)c2[nH]1` [Example 19, (S)-N-(1-Amino-4-methylpentan-2-yl)-5-chloro-6,7-difluoro-1H-indole-2-carboxamide]: the IC50 was 10 to 100 µM.

For the compound `N[C@@H]1CCN(C(=O)c2cc3cc(F)c(F)c(F)c3[nH]2)C1` [Example 3, (R)-(3-Aminopyrrolidin-1-yl)(5,6,7-trifluoro-1H-indol-2-yl)methanone], the concentration for half-maximal inhibition (IC50) lay within 1 to 10 µM.

On to `N[C@@H]1CCN(C(=O)c2cc3cc(Cl)cc(Cl)c3[nH]2)C1` [Example 45, (R)-(3-Aminopyrrolidin-1-yl)(5,7-dichloro-1H-indol-2-yl)methanone], for which the IC50 lay in the range of 10 to 100 µM.

As to `C[C@@H]1CNC[C@H]1NC(=O)c1cc2cc(Cl)c(F)c(F)c2[nH]1` [Example 13, 5-Chloro-6,7-difluoro-N-((3S,4R)-4-methylpyrrolidin-3-yl)-1H-indole-2-carboxamide], the half-inhibitory concentration (IC50) was 1 to 10 µM.

Consider `N[C@@H]1CCN(C(=O)c2cc3cc(Cl)cc(F)c3[nH]2)C1` [Example 2, (R)-(3-Aminopyrrolidin-1-yl)(5-chloro-7-fluoro-1H-indol-2-yl)methanone], for which the 50% inhibitory concentration (IC50) is ≤ 1 µM.

For the compound `NCC1(NC(=O)c2cc3cc(Cl)c(F)c(F)c3[nH]2)COC1` [Example 12, N-(3-(Aminomethyl)oxetan-3-yl)-5-chloro-6,7-difluoro-1H-indole-2-carboxamide], the IC50 is 10 to 100 µM.

For the compound `CO[C@H]1CNC[C@@H]1NC(=O)c1cc2cc(Cl)c(F)c(F)c2[nH]1` [Example 33, 5-Chloro-6,7-difluoro-N-((3S,4S)-4-methoxypyrrolidin-3-yl)-1H-indole-2-carboxamide], the IC50 was in the range of 10 to 100 µM.

With `N[C@H]1CN(C(=O)c2cc3cc(Cl)c(F)c(F)c3[nH]2)CC[C@H]1F` [Example 43, ((3S,4R)-3-Amino-4-fluoropiperidin-1-yl)(5-chloro-6,7-difluoro-1H-indol-2-yl)methanone], the concentration for half-maximal inhibition (IC50) was > 100 µM.

Turning to `N[C@@H]1CCN(C(=O)c2cc3cc(F)c(Br)c(F)c3[nH]2)C1` [Example 6, (R)-(3-Aminopyrrolidin-1-yl)(6-bromo-5,7-difluoro-1H-indol-2-yl)methanone], the IC50 was in the range of 10 to 100 µM.

Regarding `NCC(NC(=O)c1cc2cc(Cl)c(F)c(F)c2[nH]1)C1CC1` (stereo not shown) [Example 11, N-(2-Amino-1-cyclopropylethyl)-5-chloro-6,7-difluoro-1H-indole-2-carboxamide], the IC50 is 10 to 100 µM.

For the compound `C[C@@H]1CNC[C@@H]1NC(=O)c1cc2cc(Cl)c(F)c(F)c2[nH]1` [Example 20, 5-Chloro-6,7-difluoro-N-((3R,4R)-4-methylpyrrolidin-3-yl)-1H-indole-2-carboxamide], the IC50 was ≤ 1 µM.

Consider `CN(C(=O)c1cc2cc(Cl)c(F)c(F)c2[nH]1)[C@H]1CCNC1` [Example 51, (S)-5-chloro-6,7-difluoro-N-methyl-N-(pyrrolidin-3-yl)-1H-indole-2-carboxamide], for which the concentration for half-maximal inhibition (IC50) lay within 10 to 100 µM.

Regarding `CC[C@@H](CN)NC(=O)c1cc2cc(Cl)c(F)c(F)c2[nH]1` [Example 10, (S)-N-(1-Aminobutan-2-yl)-5-chloro-6,7-difluoro-1H-indole-2-carboxamide], the IC50 is 1 to 10 µM.

`N[C@@H]1CCN(C(=O)c2cc3cc(Cl)ccc3[nH]2)C1` [Example 8, (R)-(3-Aminopyrrolidin-1-yl)(5-chloro-1H-indol-2-yl)methanone]: the IC50 lay in the range of 1 to 10 µM.

`N[C@H]1CN(C(=O)c2cc3cc(Cl)c(F)c(F)c3[nH]2)C[C@H]1F` [Example 7, ((3S,4R)-3-Amino-4-fluoro-pyrrolidin-1-yl)-(5-chloro-6,7-difluoro-1H-indol-2-yl)-methanone]: the half-inhibitory concentration (IC50) fell in the range of 10 to 100 µM.

As to `N[C@@H]1CCN(C(=O)c2cc3cc(F)c(Cl)c(F)c3[nH]2)C1` [Example 4, (R)-(3-Aminopyrrolidin-1-yl)(6-chloro-5,7-difluoro-1H-indol-2-yl)methanone], the half-maximal inhibitory concentration (IC50) was 1 to 10 µM.

As for `O=C(N[C@@H]1CNC[C@H]1O)c1cc2cc(Cl)c(F)c(F)c2[nH]1` [Example 15, 5-Chloro-6,7-difluoro-N-((3R,4R)-4-hydroxypyrrolidin-3-yl)-1H-indole-2-carboxamide], the concentration for half-maximal inhibition (IC50) fell in the range of 1 to 10 µM.

Take `C[C@H](CN)NC(=O)c1cc2cc(Cl)c(F)c(F)c2[nH]1` [Example 21, (R)-N-(1-Aminopropan-2-yl)-5-chloro-6,7-difluoro-1H-indole-2-carboxamide]: the half-maximal inhibitory concentration (IC50) fell in the range of 10 to 100 µM.

Take `N[C@H]1CN(C(=O)c2cc3cc(Cl)c(F)c(F)c3[nH]2)CC[C@@H]1F` [Example 42, ((3S,4S)-3-Amino-4-fluoropiperidin-1-yl)(5-chloro-6,7-difluoro-1H-indol-2-yl)methanone]: the half-inhibitory concentration (IC50) lay in the range of 10 to 100 µM.

As to `O=C(c1cc2cc(Cl)c(F)c(F)c2[nH]1)N1CC[C@@H]2CNC[C@@H]21` [Example 58, (5-chloro-6,7-difluoro-1H-indol-2-yl)((3aR,6aR)-hexahydropyrrolo[3,4-b]pyrrol-1(2H)-yl)methanone], the half-maximal inhibitory concentration (IC50) was 10 to 100 µM.

Turning to `N[C@H]1CCN(C(=O)c2cc3cc(Cl)c(F)c(F)c3[nH]2)C1` [Example 27, (S)-(3-Aminopyrrolidin-1-yl)(5-chloro-6,7-difluoro-1H-indol-2-yl)methanone], the IC50 is ≤ 1 µM.

As to `CO[C@H]1CN(C(=O)c2cc3cc(Cl)c(F)c(F)c3[nH]2)C[C@@H]1N` [Example 35, ((3S,4S)-3-Amino-4-methoxypyrrolidin-1-yl)(5-chloro-6,7-difluoro-1H-indol-2-yl)methanone], the 50% inhibitory concentration (IC50) is > 100 µM.

In the case of `NC1CN(C(=O)c2cc3cc(Cl)c(F)c(F)c3[nH]2)C1` [Example 24, (3-Aminoazetidin-1-yl)(5-chloro-6,7-difluoro-1H-indol-2-yl)methanone], the IC50 was 1 to 10 µM.

As for `N[C@@H]1CCN(C(=O)c2cc3cc(Cl)cc(Br)c3[nH]2)C1` [Example 47, (R)-(3-Aminopyrrolidin-1-yl)(7-bromo-5-chloro-1H-indol-2-yl)methanone], the IC50 lay within 10 to 100 µM.

In the case of `C[C@H]1NC[C@H]1NC(=O)c1cc2cc(Cl)c(F)c(F)c2[nH]1` [Example 55, 5-chloro-6,7-difluoro-N-((2R,3R)-2-methylazetidin-3-yl)-1H-indole-2-carboxamide], the half-maximal inhibitory concentration (IC50) lay within 1 to 10 µM.

`O=C(N[C@@H]1CCCNC1)c1cc2cc(Cl)c(F)c(F)c2[nH]1` [Example 40, (R)-5-Chloro-6,7-difluoro-N-(piperidin-3-yl)-1H-indole-2-carboxamide]: the IC50 lay in the range of 10 to 100 µM.

`C[C@@H](CN)NC(=O)c1cc2cc(Cl)c(F)c(F)c2[nH]1` [Example 9, (S)-N-(1-Aminopropan-2-yl)-5-chloro-6,7-difluoro-1H-indole-2-carboxamide]: the IC50 was ≤ 1 µM.
